According to paper PMC3672506, “A useful EGFR-TK ligand for tumor diagnosis with SPECT: development of radioiodinated 6-(3-morpholinopropoxy)-7-ethoxy-4-(3′-iodophenoxy)quinazoline” (Annals of Nuclear Medicine, 2013):
Where two headings read alike, the source gives them in different places.

Legend:
NALM6 cell membranes = format: binding; conditions: NALM6, negative-EGFR leukemia cell line
Experimental: (§1) Assays were carried out as described in the previous section. Crude P2 membrane fractions (A431or NALM6, 0.1 mg of protein, 10 μL) and [^125I]PYK (1–300 nM, 100 μL, 0.74 kBq) were used. […] Specific binding was defined as the difference between the total and non-specific binding. Scatchard plot analysis of the saturation binding data was used to determine the equilibrium dissociation constant (K d) and the maximal number of binding sites (B max).
(§2) The crude P2 membrane fraction from A431 or NAlM6 cells were used in further binding experiments for pharmacological characterization. […] While, in the NALM6 as a negative-EGFR leukemia cell line, [^125I]PYK binding to cell membranes was undetectable.

[1] = biological target: EGFR-TK in A431 cell membranes (Homo sapiens, UniProt P00533); format: binding
Chain of EGFR-TK in A431 cell membranes (P00533 25-1210): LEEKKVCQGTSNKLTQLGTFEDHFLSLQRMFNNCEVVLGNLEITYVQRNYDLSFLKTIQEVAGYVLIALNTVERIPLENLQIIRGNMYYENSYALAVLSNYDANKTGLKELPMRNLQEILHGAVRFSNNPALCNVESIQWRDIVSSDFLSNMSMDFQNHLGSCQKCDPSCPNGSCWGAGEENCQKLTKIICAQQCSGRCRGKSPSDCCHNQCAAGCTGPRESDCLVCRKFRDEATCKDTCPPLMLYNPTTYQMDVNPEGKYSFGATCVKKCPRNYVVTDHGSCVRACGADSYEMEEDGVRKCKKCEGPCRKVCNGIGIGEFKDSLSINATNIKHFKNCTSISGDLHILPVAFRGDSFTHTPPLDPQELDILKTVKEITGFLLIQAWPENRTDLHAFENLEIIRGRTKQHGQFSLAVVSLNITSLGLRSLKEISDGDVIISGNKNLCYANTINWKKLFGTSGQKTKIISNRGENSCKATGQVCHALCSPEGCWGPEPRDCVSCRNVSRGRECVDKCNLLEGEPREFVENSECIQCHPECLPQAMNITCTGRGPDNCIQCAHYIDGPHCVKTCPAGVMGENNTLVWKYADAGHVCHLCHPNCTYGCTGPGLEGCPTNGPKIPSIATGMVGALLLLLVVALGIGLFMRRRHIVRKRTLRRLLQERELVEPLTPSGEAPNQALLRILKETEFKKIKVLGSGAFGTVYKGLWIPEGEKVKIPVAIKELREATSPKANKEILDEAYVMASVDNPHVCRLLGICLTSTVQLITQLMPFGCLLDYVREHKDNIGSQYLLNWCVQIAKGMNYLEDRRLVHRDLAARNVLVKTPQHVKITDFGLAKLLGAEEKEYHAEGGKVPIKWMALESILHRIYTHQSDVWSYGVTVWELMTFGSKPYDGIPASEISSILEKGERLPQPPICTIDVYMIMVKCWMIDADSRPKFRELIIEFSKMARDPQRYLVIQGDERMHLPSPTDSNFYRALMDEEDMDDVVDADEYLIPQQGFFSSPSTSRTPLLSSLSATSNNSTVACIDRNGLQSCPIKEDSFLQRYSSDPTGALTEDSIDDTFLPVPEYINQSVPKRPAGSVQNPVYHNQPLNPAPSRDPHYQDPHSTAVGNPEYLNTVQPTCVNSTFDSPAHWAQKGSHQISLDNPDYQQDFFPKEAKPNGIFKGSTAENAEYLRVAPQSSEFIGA
Experimental: as §1, §2

[2] = format: in vivo; conditions: normal ddY mice; for Blood radioactivity / Bone radioactivity / Brain radioactivity / Colon radioactivity / Heart radioactivity / Intestine radioactivity / Kidney radioactivity / Liver radioactivity / Lung radioactivity / Muscle radioactivity / Pancreas radioactivity / Skin radioactivity / Spleen radioactivity / Stomach radioactivity / Thyroid radioactivity: i.v.
Experimental: [^125I]PYK (37 kBq, 74 TBq/mmol) in 0.1 mL saline was injected intravenously into ddY male mice (5 weeks old, 25–30 g, n = 4) via the lateral tail vein. At the desired time (5 min—24 h) interval after administration, the animals were sacrificed by decapitation. Samples of blood and tissues of interest were excised and weighed. Radioactivity was measured using a well-type NaI(Tl) scintillation gamma counter. The results were expressed in terms of percentage of injected dose per gram of blood or tissue.
[^125I]PYK was transported well into various organs and disappeared slowly from the blood. In the liver highest uptake and rapid clearance were observed. The lungs, kidney, heart, pancreas, spleen, and brain uptakes were similar pattern to that of the liver. Furthermore, the increase in [^125I]PYK uptake in the stomach and thyroid as deiodination parameters were not found.

A431 tumor = test: SPECT/CT imaging of A431 tumor-bearing mice; format: in vivo; conditions: 24 h after injection
Experimental: The mice underwent SPECT/CT studies when A431 tumors had grown to optimal size (approximately 2 weeks after inoculation). ^125I gamma camera imaging and image processing were performed using a small-animal imaging system with pinhole collimation (aperture diameter = 1 mm, focal length = 9 cm) and a 15- to 45 keV photo peak energy window (PET/SPECT/CT FX system, Gamma Medica Ideas). […] 24 h after injection, SPECT scans were performed at 64 projections over 360° (ROR = 4.5 cm, 60 s/projection). Reconstructed data from SPECT and CT were visualized and coregistered using AMIRA 3.1.
[^125I]PYK-SPECT images of tumors were very clear without interference from radioactivity in peripheral organs.

With `CCOc1cc2ncnc(Oc3cccc([125I])c3)c2cc1OCCCN1CCOCC1` [[^125I]PYK] the “binding to cell membranes” value (NALM6 cell membranes) was “undetectable”, the Bmax ([1]; A431 P2 membranes, Scatchard analysis) was 27.0 ± 3.43 pmol/mg protein and the “Hill's constant value” ([1]; A431 membranes) was 1.02. For the same molecule, the “in vivo stability (deiodination: stomach and thyroid uptake)” value [2] was “good stability”, the Blood radioactivity ([2]; 5 min after injection) was 0.98 ± 0.61 % injected dose per gram tissu and the Bone radioactivity ([2]; 5 min after injection) was 1.13 ± 0.28 % injected dose per gram tissu. For the same molecule, the Brain radioactivity ([2]; 5 min after injection) was 2.07 ± 0.07 % injected dose per gram tissu, the Colon radioactivity ([2]; 5 min after injection) was 1.89 ± 0.37 % injected dose per gram tissu and the Heart radioactivity ([2]; 5 min after injection) was 3.47 ± 0.29 % injected dose per gram tissu. For the same molecule, the Intestine radioactivity ([2]; 5 min after injection) was 4.57 ± 0.63 % injected dose per gram tissu, the Kidney radioactivity ([2]; 5 min after injection) was 15.1 ± 1.38 % injected dose per gram tissu and the Liver radioactivity ([2]; 5 min after injection) was 10.5 ± 0.92 % injected dose per gram tissu. For the same molecule, the Lung radioactivity ([2]; 5 min after injection) was 11.89 ± 2.86 % injected dose per gram tissu, the Muscle radioactivity ([2]; 5 min after injection) was 1.78 ± 0.13 % injected dose per gram tissu and the Pancreas radioactivity ([2]; 5 min after injection) was 6.95 ± 0.49 % injected dose per gram tissu. For the same molecule, the Skin radioactivity ([2]; 5 min after injection) was 0.68 ± 0.13 % injected dose per gram tissu, the Spleen radioactivity ([2]; 5 min after injection) was 4.42 ± 0.95 % injected dose per gram tissu and the Stomach radioactivity ([2]; 5 min after injection) was 2.41 ± 0.59 % injected dose per gram tissu. The Thyroid radioactivity ([2]; 5 min after injection) was 0.05 ± 0.04 % injected dose per organ, the Blood radioactivity ([2]; 15 min after injection) was 1.05 ± 0.08 % injected dose per gram tissu and the Bone radioactivity ([2]; 15 min after injection) was 1.36 ± 0.39 % injected dose per gram tissu. The Brain radioactivity ([2]; 15 min after injection) was 3.15 ± 1.22 % injected dose per gram tissu, the Colon radioactivity ([2]; 15 min after injection) was 2.21 ± 0.48 % injected dose per gram tissu and the Heart radioactivity ([2]; 15 min after injection) was 1.76 ± 0.89 % injected dose per gram tissu. For the same molecule, the Intestine radioactivity ([2]; 15 min after injection) was 5.57 ± 1.69 % injected dose per gram tissu, the Kidney radioactivity ([2]; 15 min after injection) was 15.6 ± 1.33 % injected dose per gram tissu and the Liver radioactivity ([2]; 15 min after injection) was 13.9 ± 2.47 % injected dose per gram tissu. For the same molecule, the Lung radioactivity ([2]; 15 min after injection) was 6.85 ± 1.99 % injected dose per gram tissu, the Muscle radioactivity ([2]; 15 min after injection) was 0.97 ± 0.15 % injected dose per gram tissu and the Pancreas radioactivity ([2]; 15 min after injection) was 5.52 ± 0.50 % injected dose per gram tissu. The Skin radioactivity ([2]; 15 min after injection) was 0.91 ± 0.13 % injected dose per gram tissu, the Spleen radioactivity ([2]; 15 min after injection) was 4.23 ± 0.90 % injected dose per gram tissu and the Stomach radioactivity ([2]; 15 min after injection) was 3.03 ± 0.36 % injected dose per gram tissu. For the same molecule, the Thyroid radioactivity ([2]; 15 min after injection) was 0.05 ± 0.03 % injected dose per organ, the Blood radioactivity ([2]; 30 min after injection) was 0.80 ± 0.07 % injected dose per gram tissu and the Bone radioactivity ([2]; 30 min after injection) was 0.60 ± 0.19 % injected dose per gram tissu. The Brain radioactivity ([2]; 30 min after injection) was 0.82 ± 0.33 % injected dose per gram tissu, the Colon radioactivity ([2]; 30 min after injection) was 2.33 ± 0.40 % injected dose per gram tissu and the Heart radioactivity ([2]; 30 min after injection) was 1.43 ± 0.16 % injected dose per gram tissu. The Intestine radioactivity ([2]; 30 min after injection) was 9.11 ± 0.57 % injected dose per gram tissu, the Kidney radioactivity ([2]; 30 min after injection) was 12.6 ± 2.36 % injected dose per gram tissu and the Liver radioactivity ([2]; 30 min after injection) was 13.3 ± 1.83 % injected dose per gram tissu. The Lung radioactivity ([2]; 30 min after injection) was 4.40 ± 1.60 % injected dose per gram tissu, the Muscle radioactivity ([2]; 30 min after injection) was 1.02 ± 0.53 % injected dose per gram tissu and the Pancreas radioactivity ([2]; 30 min after injection) was 3.42 ± 0.33 % injected dose per gram tissu. The Skin radioactivity ([2]; 30 min after injection) was 1.02 ± 0.08 % injected dose per gram tissu, the Spleen radioactivity ([2]; 30 min after injection) was 3.70 ± 1.24 % injected dose per gram tissu and the Stomach radioactivity ([2]; 30 min after injection) was 3.41 ± 0.37 % injected dose per gram tissu. The Thyroid radioactivity ([2]; 30 min after injection) was 0.01 ± 0.01 % injected dose per organ, the Blood radioactivity ([2]; 1 h after injection) was 0.83 ± 0.16 % injected dose per gram tissu and the Bone radioactivity ([2]; 1 h after injection) was 1.81 ± 2.40 % injected dose per gram tissu. For the same molecule, the Brain radioactivity ([2]; 1 h after injection) was 0.47 ± 0.29 % injected dose per gram tissu, the Colon radioactivity ([2]; 1 h after injection) was 3.30 ± 0.10 % injected dose per gram tissu and the Heart radioactivity ([2]; 1 h after injection) was 1.33 ± 0.23 % injected dose per gram tissu. The Intestine radioactivity ([2]; 1 h after injection) was 15.84 ± 2.63 % injected dose per gram tissu, the Kidney radioactivity ([2]; 1 h after injection) was 7.94 ± 0.37 % injected dose per gram tissu and the Liver radioactivity ([2]; 1 h after injection) was 12.3 ± 2.45 % injected dose per gram tissu. The Lung radioactivity ([2]; 1 h after injection) was 3.42 ± 0.83 % injected dose per gram tissu, the Muscle radioactivity ([2]; 1 h after injection) was 0.65 ± 0.04 % injected dose per gram tissu and the Pancreas radioactivity ([2]; 1 h after injection) was 2.47 ± 0.43 % injected dose per gram tissu. For the same molecule, the Skin radioactivity ([2]; 1 h after injection) was 0.99 ± 0.06 % injected dose per gram tissu, the Spleen radioactivity ([2]; 1 h after injection) was 2.44 ± 0.35 % injected dose per gram tissu and the Stomach radioactivity ([2]; 1 h after injection) was 4.33 ± 0.76 % injected dose per gram tissu. For the same molecule, the Thyroid radioactivity ([2]; 1 h after injection) was 0.03 ± 0.01 % injected dose per organ, the Blood radioactivity ([2]; 3 h after injection) was 0.50 ± 0.13 % injected dose per gram tissu and the Bone radioactivity ([2]; 3 h after injection) was 0.25 ± 0.16 % injected dose per gram tissu. For the same molecule, the Brain radioactivity ([2]; 3 h after injection) was 0.27 ± 0.05 % injected dose per gram tissu, the Colon radioactivity ([2]; 3 h after injection) was 21.14 ± 5.62 % injected dose per gram tissu and the Heart radioactivity ([2]; 3 h after injection) was 0.64 ± 0.25 % injected dose per gram tissu. The Intestine radioactivity ([2]; 3 h after injection) was 14.82 ± 7.80 % injected dose per gram tissu, the Kidney radioactivity ([2]; 3 h after injection) was 13.80 ± 9.25 % injected dose per gram tissu and the Liver radioactivity ([2]; 3 h after injection) was 10.94 ± 7.67 % injected dose per gram tissu. For the same molecule, the Lung radioactivity ([2]; 3 h after injection) was 1.75 ± 0.18 % injected dose per gram tissu, the Muscle radioactivity ([2]; 3 h after injection) was 1.00 ± 1.27 % injected dose per gram tissu and the Pancreas radioactivity ([2]; 3 h after injection) was 2.18 ± 0.92 % injected dose per gram tissu. For the same molecule, the Skin radioactivity ([2]; 3 h after injection) was 0.47 ± 0.46 % injected dose per gram tissu, the Spleen radioactivity ([2]; 3 h after injection) was 0.99 ± 0.56 % injected dose per gram tissu and the Stomach radioactivity ([2]; 3 h after injection) was 0.59 ± 0.23 % injected dose per gram tissu. The Thyroid radioactivity ([2]; 3 h after injection) was 0.05 ± 0.04 % injected dose per organ, the Blood radioactivity ([2]; 6 h after injection) was 0.29 ± 0.03 % injected dose per gram tissu and the Bone radioactivity ([2]; 6 h after injection) was 0.23 ± 0.02 % injected dose per gram tissu. The Brain radioactivity ([2]; 6 h after injection) was 0.11 ± 0.03 % injected dose per gram tissu, the Colon radioactivity ([2]; 6 h after injection) was 22.10 ± 7.54 % injected dose per gram tissu and the Heart radioactivity ([2]; 6 h after injection) was 0.63 ± 0.21 % injected dose per gram tissu. For the same molecule, the Intestine radioactivity ([2]; 6 h after injection) was 8.53 ± 1.84 % injected dose per gram tissu, the Kidney radioactivity ([2]; 6 h after injection) was 3.58 ± 0.52 % injected dose per gram tissu and the Liver radioactivity ([2]; 6 h after injection) was 4.70 ± 0.36 % injected dose per gram tissu. The Lung radioactivity ([2]; 6 h after injection) was 1.77 ± 0.22 % injected dose per gram tissu, the Muscle radioactivity ([2]; 6 h after injection) was 0.25 ± 0.04 % injected dose per gram tissu and the Pancreas radioactivity ([2]; 6 h after injection) was 1.53 ± 0.38 % injected dose per gram tissu. For the same molecule, the Skin radioactivity ([2]; 6 h after injection) was 0.75 ± 0.46 % injected dose per gram tissu, the Spleen radioactivity ([2]; 6 h after injection) was 1.08 ± 0.25 % injected dose per gram tissu and the Stomach radioactivity ([2]; 6 h after injection) was 0.73 ± 0.60 % injected dose per gram tissu. For the same molecule, the Thyroid radioactivity ([2]; 6 h after injection) was 0.03 ± 0.02 % injected dose per organ, the Blood radioactivity ([2]; 24 h after injection) was 0.08 ± 0.04 % injected dose per gram tissu and the Bone radioactivity ([2]; 24 h after injection) was 0.04 ± 0.02 % injected dose per gram tissu. The Brain radioactivity ([2]; 24 h after injection) was 0.02 ± 0.06 % injected dose per gram tissu, the Colon radioactivity ([2]; 24 h after injection) was 15.91 ± 6.59 % injected dose per gram tissu and the Heart radioactivity ([2]; 24 h after injection) was 0.22 ± 0.04 % injected dose per gram tissu. For the same molecule, the Intestine radioactivity ([2]; 24 h after injection) was 3.76 ± 1.38 % injected dose per gram tissu, the Kidney radioactivity ([2]; 24 h after injection) was 0.62 ± 0.10 % injected dose per gram tissu and the Liver radioactivity ([2]; 24 h after injection) was 0.52 ± 0.10 % injected dose per gram tissu. The Lung radioactivity ([2]; 24 h after injection) was 0.38 ± 0.09 % injected dose per gram tissu, the Muscle radioactivity ([2]; 24 h after injection) was 0.03 ± 0.01 % injected dose per gram tissu and the Pancreas radioactivity ([2]; 24 h after injection) was 0.35 ± 0.05 % injected dose per gram tissu. The Skin radioactivity ([2]; 24 h after injection) was 0.17 ± 0.11 % injected dose per gram tissu, the Spleen radioactivity ([2]; 24 h after injection) was 0.24 ± 0.02 % injected dose per gram tissu and the Stomach radioactivity ([2]; 24 h after injection) was 0.16 ± 0.04 % injected dose per gram tissu. For the same molecule, the Thyroid radioactivity ([2]; 24 h after injection) was 0.01 ± 0.00 % injected dose per organ and the “SPECT images of tumors (in words)” value (A431 tumor) was “very clear”.
